# Assay results as given in publication PMC3914206.
# Legend:
# Assay type in all cases: binding
# Details in all cases: Compound Concentration 10 µM
# panel of 442 kinases [1] = target: T1, panel of 442 kinases (Homo sapiens, UniProt P53355)
# T1 construct: purchased KINOMEscan
# Description: (§1) We assessed the selectivity of members of this scaffold using the KINOMEscan methodology across a near comprehensive panel of 442 kinases [[18,27]].
# panel of 442 kinases [2] = target: T2, panel of 442 kinases (Homo sapiens, UniProt P29317)
# T2 construct: purchased KINOMEscan
# Description: as §1
# panel of 442 kinases [3] = target: T3, panel of 442 kinases (Homo sapiens, UniProt Q9UF33)
# T3 sequence (Q9UF33 23-1036): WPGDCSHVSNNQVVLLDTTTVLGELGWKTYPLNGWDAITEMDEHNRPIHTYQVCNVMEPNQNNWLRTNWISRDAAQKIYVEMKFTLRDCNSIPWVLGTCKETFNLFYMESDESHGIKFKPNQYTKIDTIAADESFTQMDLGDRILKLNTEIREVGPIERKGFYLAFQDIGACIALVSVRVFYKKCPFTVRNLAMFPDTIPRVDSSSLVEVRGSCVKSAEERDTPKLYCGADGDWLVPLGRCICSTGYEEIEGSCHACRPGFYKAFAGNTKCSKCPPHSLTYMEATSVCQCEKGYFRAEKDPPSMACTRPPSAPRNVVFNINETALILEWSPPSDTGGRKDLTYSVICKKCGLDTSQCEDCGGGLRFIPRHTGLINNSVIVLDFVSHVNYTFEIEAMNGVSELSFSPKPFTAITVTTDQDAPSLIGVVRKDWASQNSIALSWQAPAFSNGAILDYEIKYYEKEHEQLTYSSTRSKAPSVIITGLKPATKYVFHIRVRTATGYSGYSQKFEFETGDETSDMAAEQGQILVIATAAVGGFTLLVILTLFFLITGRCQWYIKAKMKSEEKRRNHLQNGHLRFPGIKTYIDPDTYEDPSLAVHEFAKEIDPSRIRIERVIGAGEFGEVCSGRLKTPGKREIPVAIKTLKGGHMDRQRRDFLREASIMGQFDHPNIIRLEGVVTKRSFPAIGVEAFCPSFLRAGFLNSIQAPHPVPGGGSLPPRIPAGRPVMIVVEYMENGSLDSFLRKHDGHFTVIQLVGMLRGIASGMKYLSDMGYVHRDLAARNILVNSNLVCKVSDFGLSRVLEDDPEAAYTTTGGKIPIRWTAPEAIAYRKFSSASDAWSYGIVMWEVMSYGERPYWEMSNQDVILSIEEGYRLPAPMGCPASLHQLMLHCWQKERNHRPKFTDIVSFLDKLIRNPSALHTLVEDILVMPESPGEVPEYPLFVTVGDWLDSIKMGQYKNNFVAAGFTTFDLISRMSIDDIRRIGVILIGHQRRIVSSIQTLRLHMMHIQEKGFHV
# Description: as §1
# T2 sequence (P29317 24-976): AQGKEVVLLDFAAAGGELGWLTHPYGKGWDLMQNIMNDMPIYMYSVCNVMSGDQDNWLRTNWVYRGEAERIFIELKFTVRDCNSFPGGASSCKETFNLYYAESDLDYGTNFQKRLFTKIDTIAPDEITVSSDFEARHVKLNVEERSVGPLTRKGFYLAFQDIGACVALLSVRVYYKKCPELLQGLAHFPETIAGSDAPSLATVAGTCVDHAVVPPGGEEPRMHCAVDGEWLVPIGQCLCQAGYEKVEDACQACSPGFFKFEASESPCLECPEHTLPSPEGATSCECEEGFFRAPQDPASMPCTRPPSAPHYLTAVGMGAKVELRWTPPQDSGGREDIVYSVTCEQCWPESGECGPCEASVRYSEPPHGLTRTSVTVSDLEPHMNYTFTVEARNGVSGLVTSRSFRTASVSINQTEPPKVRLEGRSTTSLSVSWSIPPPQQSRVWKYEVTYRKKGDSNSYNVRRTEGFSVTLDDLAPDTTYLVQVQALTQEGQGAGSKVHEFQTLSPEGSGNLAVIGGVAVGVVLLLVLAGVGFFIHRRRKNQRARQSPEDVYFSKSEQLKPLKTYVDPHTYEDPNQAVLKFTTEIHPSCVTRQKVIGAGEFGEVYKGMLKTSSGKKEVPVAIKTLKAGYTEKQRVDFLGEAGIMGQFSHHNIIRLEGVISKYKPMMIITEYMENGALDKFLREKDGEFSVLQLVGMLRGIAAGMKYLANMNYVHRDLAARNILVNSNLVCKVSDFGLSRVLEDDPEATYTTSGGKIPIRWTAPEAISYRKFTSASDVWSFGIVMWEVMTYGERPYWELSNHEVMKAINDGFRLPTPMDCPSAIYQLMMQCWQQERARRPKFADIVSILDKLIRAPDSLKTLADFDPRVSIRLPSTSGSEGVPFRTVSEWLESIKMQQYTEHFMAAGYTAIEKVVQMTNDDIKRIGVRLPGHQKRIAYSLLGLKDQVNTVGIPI
# T1 sequence (P53355 whole entry): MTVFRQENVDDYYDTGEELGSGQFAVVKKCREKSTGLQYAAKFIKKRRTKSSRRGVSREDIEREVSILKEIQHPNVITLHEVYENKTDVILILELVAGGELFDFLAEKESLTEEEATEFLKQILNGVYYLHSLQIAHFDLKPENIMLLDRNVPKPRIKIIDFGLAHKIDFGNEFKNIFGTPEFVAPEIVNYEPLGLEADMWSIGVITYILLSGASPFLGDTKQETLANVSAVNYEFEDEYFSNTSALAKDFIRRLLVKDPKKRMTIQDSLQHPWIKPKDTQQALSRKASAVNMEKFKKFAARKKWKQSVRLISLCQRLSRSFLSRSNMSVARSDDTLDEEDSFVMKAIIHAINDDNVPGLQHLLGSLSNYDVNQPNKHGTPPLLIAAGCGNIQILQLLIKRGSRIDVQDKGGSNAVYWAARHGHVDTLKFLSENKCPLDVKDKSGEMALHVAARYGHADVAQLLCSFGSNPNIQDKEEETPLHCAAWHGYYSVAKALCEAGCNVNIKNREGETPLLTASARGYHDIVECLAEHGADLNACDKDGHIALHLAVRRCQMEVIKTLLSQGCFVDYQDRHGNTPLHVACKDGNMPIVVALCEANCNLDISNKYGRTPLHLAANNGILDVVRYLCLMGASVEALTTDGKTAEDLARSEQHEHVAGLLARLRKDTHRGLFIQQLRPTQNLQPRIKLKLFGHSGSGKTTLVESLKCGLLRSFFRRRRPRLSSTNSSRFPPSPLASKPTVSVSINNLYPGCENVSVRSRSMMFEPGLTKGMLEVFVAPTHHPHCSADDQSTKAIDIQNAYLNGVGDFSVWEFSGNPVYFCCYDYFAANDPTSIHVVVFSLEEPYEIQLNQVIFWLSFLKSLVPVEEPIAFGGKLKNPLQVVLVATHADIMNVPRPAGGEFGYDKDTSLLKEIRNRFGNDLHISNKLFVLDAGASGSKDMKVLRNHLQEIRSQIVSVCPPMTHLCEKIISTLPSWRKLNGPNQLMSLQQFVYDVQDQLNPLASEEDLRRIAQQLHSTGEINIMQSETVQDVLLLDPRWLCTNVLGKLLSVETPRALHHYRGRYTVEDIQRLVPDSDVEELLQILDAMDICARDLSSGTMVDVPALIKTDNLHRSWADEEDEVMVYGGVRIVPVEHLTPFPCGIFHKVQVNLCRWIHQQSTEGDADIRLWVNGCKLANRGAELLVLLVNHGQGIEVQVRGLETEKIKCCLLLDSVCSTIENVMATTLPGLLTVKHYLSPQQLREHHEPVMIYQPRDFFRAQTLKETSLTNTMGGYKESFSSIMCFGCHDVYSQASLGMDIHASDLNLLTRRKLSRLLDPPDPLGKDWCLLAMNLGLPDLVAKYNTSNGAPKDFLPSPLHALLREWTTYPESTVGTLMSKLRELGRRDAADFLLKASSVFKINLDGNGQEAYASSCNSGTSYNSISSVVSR
Compound,KINOMEscan: DAPK1 (panel of 442 kinases [1]),KINOMEscan: EPHA2 (panel of 442 kinases [2]),KINOMEscan: EPHA6 (panel of 442 kinases [3])
CCOc1cc(C(=O)N2CCC(N3CCN(C)CC3)CC2)ccc1Nc1ncc2c(n1)N(C1CCCC1)c1ccccc1C(=O)N2C [Compound 26],100,100,100
COc1cc(C(=O)N2CCC(N3CCN(C)CC3)CC2)ccc1Nc1ncc2c(n1)N1CCc3cccc(c31)C(=O)N2C [Compound 24],19,95,97
COc1cc(C(=O)N2CCC(N3CCN(C)CC3)CC2)ccc1Nc1ncc2c(n1)N(C)c1ccccc1C(=O)N2C [15 (LRRK2-IN-1)],73,92,89
"COc1cc(C(=O)N2CCC(N3CCN(C)CC3)CC2)ccc1Nc1ncc2c(n1)N(C1CCCC1)c1ccccc1C(=O)N2C [Compound 25, 11-cyclopentyl-2-((2-methoxy-4-(4-(4-methylpiperazin-1-yl)piperidine-1-carbonyl)phenyl)amino)-5-methyl-5H-benzo[e]pyrimido[5,4-b][1,4]diazepin-6(11H)-one]",77,100,100
